Laboratory results from PubChem BioAssay AID298 (DTP/NCI, 2004).
Records with an inconclusive call do not appear.

Test system: MX-1 breast xenograft, intrarenal, nude mice, tumor weight
Test: NCI In Vivo Anticancer Drug Screen. Data for tumor model Human Mammary Carcinoma MX-1 Xenograft (intrarenal inoculation) in NU/NU BALB/C (nude) mice
Details: endpoint: mean tumor weight change, higher = larger tumour
Procedure, shortened: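 Efficacy in vivo: tumor measurement or survival of treated animals divided by that of vehicle-dosed controls.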

**Q.** What does the source list for `CN(Cc1cnc2nc(N)nc(N)c2n1)c1c(Cl)cc(C(=O)NC(CCC(=O)O)C(=O)O)cc1Cl` (configuration not stated)?
**A.** T/C (dose: 12.5 mg/kg/injection, schedule: Q01DX010 (sc), vehicle: Klucel (hydroxypropylcellulose) (HPC)): 64 % of control; T/C (dose: 25.0 mg/kg/injection, schedule: Q01DX010 (sc), vehicle: Klucel (hydroxypropylcellulose) (HPC)): 25 % of control; T/C (dose: 50.0 mg/kg/injection, schedule: Q01DX010 (sc), vehicle: Klucel (hydroxypropylcellulose) (HPC)): -67 % of control

**Q.** What does the source list for `Cn1c(=S)sc2nc3ccccc3n2c1=S`?
**A.** T/C (dose: 30.0 mg/kg/injection, schedule: Q04DX003 (ip), vehicle: saline with Tween-80): 165 % of control; T/C (dose: 120.0 mg/kg/injection, schedule: Q04DX003 (ip), vehicle: saline with Tween-80): 42 % of control

**Q.** Which T/C (dose: 50.0 mg/kg/injection, schedule: Q04DX003 (ip), vehicle: saline + alcohol) does the source give for `C[C@@]1(CO)[C@H](O)CC[C@@]2(C)[C@H]1CC[C@H]1C[C@@H]3C[C@@]12CC[C@@]3(O)COC(=O)CN` here?
**A.** Its T/C is 107 % of control.

**Q.** What about the T/C (dose: 100.0 mg/kg/injection, schedule: Q04DX003 (ip), vehicle: saline + alcohol) of the same compound?
**A.** Its T/C is 95 % of control.

**Q.** How did the T/C (dose: 9.0 mg/kg/injection, schedule: Q04DX003 (ip), vehicle: suspension in saline) turn out when `CC1Oc2cc3c(-c4c(O)cc(O)c5c(O)c6c(cc45)OC(C)C(C)C6=O)c(O)cc(O)c3c(O)c2C(=O)C1C` (configuration not stated) was run?
**A.** Its T/C is 21 % of control.

**Q.** What about the T/C (dose: 12.0 mg/kg/injection, schedule: Q04DX003 (ip), vehicle: suspension in saline) of the same compound?
**A.** Its T/C is 15 % of control.

**Q.** How did the T/C (dose: 12.5 mg/kg/injection, schedule: Q04DX003 (ip), vehicle: suspension in saline) turn out when `O=c1c(O)c(O)c1=O.[NH2-].[NH2-].[NH2-].[NH2-].[NH2-].[Ru+5]` was run?
**A.** Its T/C is 98 % of control.

**Q.** What about the T/C (dose: 25.0 mg/kg/injection, schedule: Q04DX003 (ip), vehicle: suspension in saline) of the same compound?
**A.** Its T/C is 74 % of control.

**Q.** What about the T/C (dose: 50.0 mg/kg/injection, schedule: Q04DX003 (ip), vehicle: suspension in saline) of the same compound?
**A.** Its T/C is 60 % of control.

**Q.** `O=NN(CCCl)C(=O)NC1CCCCC1` was tested. Which T/C (dose: 4.0 mg/kg/injection, schedule: Q01DX010 (ip), vehicle: saline with Tween-80) did it give?
**A.** The T/C was 303 % of control.

**Q.** What about the T/C (dose: 8.0 mg/kg/injection, schedule: Q01DX010 (ip), vehicle: saline with Tween-80) of the same compound?
**A.** Its T/C is 248 % of control.

**Q.** And the T/C (dose: 8.0 mg/kg/injection, schedule: Q01DX010 (sc), vehicle: saline with Tween-80)?
**A.** Its T/C is 71 % of control.

**Q.** And the T/C (dose: 12.5 mg/kg/injection, schedule: Q04DX003 (sc), vehicle: Klucel (hydroxypropylcellulose) (HPC))?
**A.** Its T/C is 66 % of control.

**Q.** And the T/C (dose: 13.33 mg/kg/injection, schedule: Q04DX003 (ip), vehicle: saline with Tween-80)?
**A.** Its T/C is 105 % of control.

**Q.** And the T/C (dose: 16.0 mg/kg/injection, schedule: Q01DX010 (ip), vehicle: saline with Tween-80)?
**A.** The T/C was 263 % of control.

**Q.** And the T/C (dose: 16.0 mg/kg/injection, schedule: Q01DX010 (sc), vehicle: saline with Tween-80)?
**A.** The T/C was 61 % of control.

**Q.** And the T/C (dose: 25.0 mg/kg/injection, schedule: Q04DX003 (sc), vehicle: Klucel (hydroxypropylcellulose) (HPC))?
**A.** The T/C was 67 % of control.

**Q.** And the T/C (dose: 26.65 mg/kg/injection, schedule: Q04DX003 (ip), vehicle: saline with Tween-80)?
**A.** Its T/C is 36 % of control.

**Q.** What about the T/C (dose: 26.66 mg/kg/injection, schedule: Q04DX003 (sc), vehicle: saline with Tween-80) of the same compound?
**A.** Its T/C is 64 % of control.

**Q.** And the T/C (dose: 32.0 mg/kg/injection, schedule: Q01DX010 (ip), vehicle: saline with Tween-80)?
**A.** Its T/C is 8 % of control.

**Q.** What about the T/C (dose: 32.0 mg/kg/injection, schedule: Q01DX010 (sc), vehicle: saline with Tween-80) of the same compound?
**A.** Its T/C is 3 % of control.

**Q.** And the T/C (dose: 50.0 mg/kg/injection, schedule: Q04DX003 (sc), vehicle: Klucel (hydroxypropylcellulose) (HPC))?
**A.** The T/C was 31 % of control.

**Q.** What about the T/C (dose: 53.3 mg/kg/injection, schedule: Q04DX003 (ip), vehicle: saline with Tween-80) of the same compound?
**A.** The T/C was 42 % of control.

**Q.** And the T/C (dose: 53.33 mg/kg/injection, schedule: Q04DX003 (sc), vehicle: saline with Tween-80)?
**A.** Its T/C is 31 % of control.

**Q.** `O=C(O)c1cc(C(=O)O)c(C(=O)O)cc1C(=O)O.[NH2-].[NH2-].[NH2-].[NH2-].[Pt+2].[Pt+2]` was tested. Which T/C (dose: 10.0 mg/kg/injection, schedule: Q04DX003 (ip), vehicle: water) did it give?
**A.** The T/C was 81 % of control.

**Q.** And the T/C (dose: 20.0 mg/kg/injection, schedule: Q04DX003 (ip), vehicle: water)?
**A.** The T/C was 42 % of control.

**Q.** What about the T/C (dose: 40.0 mg/kg/injection, schedule: Q04DX003 (ip), vehicle: water) of the same compound?
**A.** The T/C was 12 % of control.

**Q.** For `Nc1ccn([C@@H](C=O)C[C@@H](C=O)CO)c(=O)n1`, which T/C (dose: 75.0 mg/kg/injection, schedule: Q04DX003 (ip), vehicle: saline) is on record?
**A.** The T/C was 76 % of control.

**Q.** And the T/C (dose: 150.0 mg/kg/injection, schedule: Q04DX003 (ip), vehicle: saline)?
**A.** The T/C was 124 % of control.
